Patent US11299487B2, “Compounds and compositions as modulators of TLR signaling” (Neuropore Therapies, Inc., priority 2019, dated 2022)

Columns and labels:
human TLR2 [1] = biological target: T1, human TLR2 (Homo sapiens, UniProt O60603); experiment: HEK-Blue hTLR2 antagonism assay (SEAP reporter) with agonist Pam2CSK4 (TLR2/6 agonist); assay type: cell-based; conditions: HEK-Blue hTLR2 cells, ~3×EC50 Pam2CSK4, 18 h, SEAP OD 655 nm, 8-point dilutions
T1 construct: host or cells: HEK-Blue hTLR2 (HEK-293)
T1 sequence (O60603 21-784): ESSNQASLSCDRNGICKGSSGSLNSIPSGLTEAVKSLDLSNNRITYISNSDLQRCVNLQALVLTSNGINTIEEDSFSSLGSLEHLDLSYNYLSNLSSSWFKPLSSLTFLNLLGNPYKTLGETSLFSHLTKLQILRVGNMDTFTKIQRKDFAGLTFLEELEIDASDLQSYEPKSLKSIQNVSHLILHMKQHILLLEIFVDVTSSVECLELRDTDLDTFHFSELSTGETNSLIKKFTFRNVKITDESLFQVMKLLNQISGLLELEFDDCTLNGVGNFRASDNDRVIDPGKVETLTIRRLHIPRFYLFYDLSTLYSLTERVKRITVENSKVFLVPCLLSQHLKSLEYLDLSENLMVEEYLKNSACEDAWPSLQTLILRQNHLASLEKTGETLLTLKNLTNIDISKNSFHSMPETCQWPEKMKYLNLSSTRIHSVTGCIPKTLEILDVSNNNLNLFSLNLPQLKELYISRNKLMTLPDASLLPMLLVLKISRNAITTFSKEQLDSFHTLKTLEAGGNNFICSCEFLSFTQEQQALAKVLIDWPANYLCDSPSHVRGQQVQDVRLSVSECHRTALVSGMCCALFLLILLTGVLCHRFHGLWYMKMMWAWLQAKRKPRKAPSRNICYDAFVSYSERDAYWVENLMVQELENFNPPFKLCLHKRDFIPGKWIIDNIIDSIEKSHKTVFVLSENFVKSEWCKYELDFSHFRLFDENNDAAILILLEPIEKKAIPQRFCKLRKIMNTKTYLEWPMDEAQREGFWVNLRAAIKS
Protocol: (§1) Synthetic diacylated lipoprotein (Pam2CSK4, TLR2/6 agonist) and synthetic triacylated lipoprotein (Pam3CSK4, TLR1/2 agonist) were obtained from InvivoGen and were dissolved in endotoxin-free water to a concentration 1 mg/mL, vortexed until complete solubilization, and stored in aliquots at −20° C. Prior to addition to cells, an aliquot of the dissolved ligand was vortexed shortly and then was diluted in medium to 25 ng/mL Pam2CSK4 or 1000 ng/mL Pam3CSK4.
(§2) Test compounds were solubilized fresh to 10-20 mM stocks in DMSO and sonicated for 5-10 minutes in a water bath sonicator. Serial dilutions were prepared in DMSO, and then diluted in medium. The final concentration of DMSO used in the assay was 1%.
(§3) HEK-Blue hTLR2 reporter cells (InvivoGen) are HEK-293 cells stably expressing both the human TLR2 gene and a secreted embryonic alkaline phosphatase (SEAP) reporter construct downstream of NFκB promotor sites. HEK-Blue hTLR2 reporters were cultured according to manufacturer's protocol using Dulbecco's Modified Eagle Medium (DMEM; Gibco) containing 1× GlutaMax (Gibco), 10% heat-inactivated Fetal Bovine Serum (Gibco), Pen-Strep (50 U/mL penicillin, 50 μg/mL streptomycin, Gibco), 100 μg/mL Normocin (InvivoGen), and the selective antibiotic, 1×HEK-Blue Selection (InvivoGen). Quanti-Blue reagent (InvivoGen) for detection and quantification of secreted alkaline phosphatase was dissolved in 100 mL of endotoxin-free water, warmed to 37° C. for 30 minutes and then filtered using a 0.2 μm membrane.
(§4) On day 1, 50 μL of each test compound dilution in duplicates or a vehicle control was added to each well of a 96-well plate followed by addition of 150 μL of HEK-Blue hTLR2 cell suspension (1×10^5 cells/well) and incubated at 37° C./5% CO2 for 2 h. Next, 50 μL of an approximate 3×EC50 concentration of each agonist (Pam2CSK4 or Pam3CSK4) was added to the wells containing test compounds or the vehicle control. The plates were then incubated at 37° C./5% CO2 for 18 h. For each assay run, non-treated HEK-Blue hTLR2 cells were treated with serial dilutions of agonists to determine EC50 values for the respective run.
(§5) On day 2, secreted alkaline phosphatase (SEAP) activity was detected in cell culture supernatants. In brief, 20 μL was collected from each well and transferred to a 96-well plate. Next, 200 μL of Quanti-Blue detection reagent was added to each well. Plates were incubated at room temperature for 15 min. and SEAP activity was assessed by spectrophotometer OD reading at 655 nm. […] IC50 values were calculated based on 8-point dilutions for each compound.

human TLR2 [2] = biological target: T1, human TLR2; experiment: HEK-Blue hTLR2 antagonism assay (SEAP reporter) with agonist Pam3CSK4 (TLR1/2 agonist); assay type: cell-based; conditions: HEK-Blue hTLR2 cells, ~3×EC50 Pam3CSK4, 18 h, SEAP OD 655 nm, 8-point dilutions
Protocol: as §1, §2, §3, §4, §5

| IC50 (human TLR2 [1]; Table A) [µM] | IC50 (human TLR2 [2]; Table A) [µM] | IC50 (human TLR2 [1]; Table B) [µM] | IC50 (human TLR2 [2]; Table B) [µM] | Compound |
| --- | --- | --- | --- | --- |
| 2.1 | 2.2 |  |  | O=Cc1cc(-c2ccn(-c3cccc(N4CCCC4)c3)n2)cc(F)c1O [Compound A30, 3-fluoro-2-hydroxy-5-(1-(3-(pyrrolidin-1-yl)phenyl)-1H-pyrazol-3-yl)benzaldehyde] |
|  |  | 4.3 | 1.8 | O=Cc1cc(C(=O)Nc2ccc(N3Cc4ccccc4C3)nc2)cc(F)c1O [Compound B86, 3-fluoro-5-formyl-4-hydroxy-N-(6-(isoindolin-2-yl)pyridin-3-yl)benzamide] |
|  |  | 32.7 | 19.8 | O=Cc1cc(C(=O)Nc2cnc(N3CCCC3)nc2)cc(F)c1O [Compound B59, 3-fluoro-5-formyl-4-hydroxy-N-(2-(pyrrolidin-1-yl)pyrimidin-5-yl)benzamide] |
| 3.3 | 2 |  |  | O=Cc1cc(-c2nsc(-c3cccc(N4CCCC4)c3)n2)cc(F)c1O [Compound A125, 3-fluoro-2-hydroxy-5-(5-(3-(pyrrolidin-1-yl)phenyl)-1,2,4-thiadiazol-3-yl)benzaldehyde] |
| 4.1 | 0.9 |  |  | O=Cc1cc(-c2ccc(-c3ccc(N4CCCC4)cc3)s2)cc(F)c1O [Compound A50, 3-fluoro-2-hydroxy-5-(5-(4-(pyrrolidin-1-yl)phenyl)thiophen-2-yl)benzaldehyde] |
|  |  | 1.4 | 1.1 | O=Cc1cc(C(=O)Nc2ccc(N3C4CCCC3CC4)cc2)cc(F)c1O [Compound B96, N-(4-(8-azabicyclo[3.2.1]octan-8-yl)phenyl)-3-fluoro-5-formyl-4-hydroxybenzamide] |
|  |  | 34.4 | 18.5 | O=Cc1cc(C(=O)Nc2ccc(N3CC4(CC4)CC3=O)cc2)cc(F)c1O [Compound B78, 3-fluoro-5-formyl-4-hydroxy-N-(4-(6-oxo-5-azaspiro[2.4]heptan-5-yl)phenyl)benzamide] |
| 1.4 | 1 |  |  | Cc1nc(-c2ccc(N3CCCC3)cc2)sc1-c1cc(F)c(O)c(C=O)c1 [Compound A98, 3-fluoro-2-hydroxy-5-(4-methyl-2-(4-(pyrrolidin-1-yl)phenyl)thiazol-5-yl)benzaldehyde] |
|  |  | 8.1 | 6.8 | O=Cc1cc(NC(=O)c2ccccc2)cc(F)c1O [Compound B9, N-(3-fluoro-5-formyl-4-hydroxyphenyl)benzamide] |
| 1.2 | 0.7 |  |  | O=Cc1cc(-c2cnc(-c3ccc(N4CCCCC4)nc3)s2)cc(F)c1O [Compound A127, 3-fluoro-2-hydroxy-5-(2-(6-(piperidin-1-yl)pyridin-3-yl)thiazol-5-yl)benzaldehyde] |
| 0.8 | 0.9 |  |  | O=Cc1cc(-c2cnn(-c3cccc(N4CCCCC4)c3)c2)cc(F)c1O [Compound A23, 3-fluoro-2-hydroxy-5-(1-(3-(piperidin-1-yl)phenyl)-1H-pyrazol-4-yl)benzaldehyde] |
|  |  | 2.9 | 1.6 | COc1cc(C#Cc2ccc(N3CCOCC3)cc2)cc(C=O)c1O [Compound B8, 2-hydroxy-3-methoxy-5-((4-morpholinophenyl)ethynyl)benzaldehyde] |
| > 100 | > 100 |  |  | COc1cc(-c2cnn(C3CCOCC3)c2)cc(C=O)c1O [Compound A5, 2-hydroxy-3-methoxy-5-(1-(tetrahydro-2H-pyran-4-yl)-1H-pyrazol-4-yl)benzaldehyde] |
| > 100 | > 100 |  |  | Oc1c(F)cc(-c2cnn(-c3ccccc3)c2)cc1F [Compound A18, 2,6-difluoro-4-(1-phenyl-1H-pyrazol-4-yl)phenol] |
| 3.4 | 6.2 |  |  | O=Cc1cc(-c2ccn(-c3cccc(N4CCCCC4)c3)n2)cc(F)c1O [Compound A31, 3-fluoro-2-hydroxy-5-(1-(3-(piperidin-1-yl)phenyl)-1H-pyrazol-3-yl)benzaldehyde] |
| 3.9 | 1.3 |  |  | Cc1nc(-c2cccc(N3CCCC3)c2)sc1-c1cc(F)c(O)c(C=O)c1 [Compound A103, 3-fluoro-2-hydroxy-5-(4-methyl-2-(3-(pyrrolidin-1-yl)phenyl)thiazol-5-yl)benzaldehyde] |
| 3.2 | 1 |  |  | O=Cc1cc(-c2cnc(-c3cccc(N4CCCC4)c3)s2)cc(F)c1O [Compound A101, 3-fluoro-2-hydroxy-5-(2-(3-(pyrrolidin-1-yl)phenyl)thiazol-5-yl)benzaldehyde] |
|  |  | 11.6 | 7.2 | O=Cc1cc(NC(=O)Nc2ccccc2)cc(F)c1O [Compound B10, 1-(3-fluoro-5-formyl-4-hydroxyphenyl)-3-phenylurea] |
| 3.5 | 0.9 |  |  | O=Cc1cc(-c2csc(-c3ccc(Cl)cc3)n2)cc(F)c1O [Compound A92, 5-(2-(4-chlorophenyl)thiazol-4-yl)-3-fluoro-2-hydroxybenzaldehyde] |
| > 100 | > 100 |  |  | O=Cc1cc(-c2ncc(-c3ccccc3)o2)cc(F)c1O [Compound A89, 3-fluoro-2-hydroxy-5-(5-phenyloxazol-2-yl)benzaldehyde] |
|  |  | 16.4 | 9.3 | O=Cc1cc(C(=O)Nc2ccc(N3CCCC3)nc2)cc(F)c1O [Compound B61, 3-fluoro-5-formyl-4-hydroxy-N-(6-(pyrrolidin-1-yl)pyridin-3-yl)benzamide] |
|  |  | 1.7 | 1 | O=Cc1cc(C(=O)Nc2ccc(N3C[C@H]4CCC[C@H]4C3)nc2)cc(F)c1O [Compound B103, 3-fluoro-5-formyl-N-(6-((3aR,6aS)-hexahydrocyclopenta[c]pyrrol-2(1H)-yl)pyridin-3-yl)-4-hydroxybenzamide] |
| 6.4 | 7.6 |  |  | O=Cc1cc(-c2ccn(-c3ccc(N4CCOCC4)cc3)n2)cc(F)c1O [Compound A29, 3-fluoro-2-hydroxy-5-(1-(4-morpholinophenyl)-1H-pyrazol-3-yl)benzaldehyde] |
|  |  | 2 | 1 | O=Cc1cc(C(=O)Nc2ccc(N3CCN(c4ccccc4)CC3)nc2)cc(F)c1O [Compound B102, 3-fluoro-5-formyl-4-hydroxy-N-(6-(4-phenylpiperazin-1-yl)pyridin-3-yl)benzamide] |
| > 100 | > 100 |  |  | Oc1c(F)cc(-c2cnn(-c3ccc(N4CCCC4)cc3)c2)cc1/C=N/N1CCOCC1 [Compound A37, (E)-2-fluoro-6-((morpholinoimino)methyl)-4-(1-(4-(pyrrolidin-1-yl)phenyl)-1H-pyrazol-4-yl)phenol] |
|  |  | 0.6 | 0.5 | CC1(C)CN(c2ccc(NC(=O)c3cc(F)c(O)c(C=O)c3)cn2)c2ccc(F)cc21 [Compound B99, 3-fluoro-N-(6-(5-fluoro-3,3-dimethylindolin-1-yl)pyridin-3-yl)-5-formyl-4-hydroxybenzamide] |
| 6.8 | 3.9 |  |  | Cc1nc(-c2ccc(N3CCCC3)nc2)sc1-c1cc(F)c(O)c(C=O)c1 [Compound A104, 3-fluoro-2-hydroxy-5-(4-methyl-2-(6-(pyrrolidin-1-yl)pyridin-3-yl)thiazol-5-yl)benzaldehyde] |
| 5.2 | 5.2 |  |  | COc1ccc(Cn2cc(-c3cc(C=O)c(O)c(OC)c3)cn2)cc1 [Compound A10, 2-hydroxy-3-methoxy-5-(1-(4-methoxybenzyl)-1H-pyrazol-4-yl)benzaldehyde] |
| 7.2 | 2.7 |  |  | Oc1c(F)cc(-c2cnn(-c3ccc(N4CCCC4)cc3)c2)cc1/C=N/Oc1ccccc1 [Compound A40, (E)-3-fluoro-2-hydroxy-5-(1-(4-(pyrrolidin-1-yl)phenyl)-1H-pyrazol-4-yl)benzaldehyde O-phenyl Oxime] |
| 1.7 | 1 |  |  | O=Cc1cc(-c2csc(-c3cccc(N4CCCC4)c3)n2)cc(F)c1O [Compound A124, 3-fluoro-2-hydroxy-5-(2-(3-(pyrrolidin-1-yl)phenyl)thiazol-4-yl)benzaldehyde] |
